{"source": "patent US20260060982A1", "about": "“USE OF BTK INHIBITOR AND SINGLE-DOSE DRUG” (HUBEI BIO-PHARMACEUTICAL INDUSTRIAL TECHNOLOGICAL INSTITUTE …, priority 2023, published 2026)", "tested_on": "PG-PS-induced arthritis in Lewis rats", "assay": "PG-PS-induced arthritis model in rats", "format": "in vivo", "details": "for joint tissue lesions (pathology): day 30", "excerpt": "Intraperitoneal injection of PG-PS suspension can effectively induce chronic, erosive, and relapsing symptoms similar to human rheumatoid arthritis in rats, and is often used to evaluate the in vivo effectiveness of medicaments in the early discovery of arthritis medicaments. The specific steps were as follows:\nOn day 0, Lewis rats were randomly divided into 6 groups, with 5 rats in the first group and 10 rats in each group from the second group to the sixth group. All rats in the second to sixth groups were intraperitoneally injected with PG-PS (Lee Laboratories, PG-PS 10S, 5.1 mg/ml Rhamnose) to establish the model. The PG-PS injection dose v=15 μg/g×bw (rat weight, in g)/5.1 μg/μL.\nOn day 1, the model rats (the second to sixth groups) were randomly redivided into 5 groups, with 10 rats in each group. The animals in each group were given the corresponding medicament or vehicle by gavage once a day until the 29th day. […] Clinical observations and clinical scoring were performed daily during the administration period. The ankle diameter of each animal after modeling was subtracted from its ankle diameter before modeling to obtain the ankle diameter difference (delta ankle diameter). The area under the curve (AUC) was calculated by analyzing the ankle diameter difference of each animal in each group. The inhibition rate of each administration group relative to the blank vehicle control was calculated by the average AUC between groups.\nPathology: On day 30, the rats were euthanized. The two hind limbs of rats were stained with toluidine blue to evaluate the degree of joint damage in terms of inflammatory cell lesions, pannus formation, cartilage damage, bone resorption, and periosteal new bone formation, and the severity was scored on a scale from 0 to 7.", "data": [{"smiles": "C=CC(=O)N1CCC[C@@H](n2nc(-c3ccc(Oc4ccccn4)cc3)c3c(N)n[nH]c(=O)c32)C1", "note": "[compound (I), (R)-1-(1-acryloylpiperidin-3-yl)-4-amino-3-(4-(pyridin-2-yloxy)phenyl)-1H-pyrazolo[3,4-d]pyridazin-7(6H)-one]", "values": [{"measurement": "inhibition rate (AUC of ankle diameter difference vs blank vehicle control)", "setting": "1 mg/kg once a day by gavage until the 29th day", "value": 47.7, "unit": "%"}, {"measurement": "joint tissue lesions (pathology)", "setting": "1 mg/kg", "value": "trend of alleviating tissue damage"}, {"measurement": "inhibition rate (AUC of ankle diameter difference vs blank vehicle control)", "setting": "3 mg/kg once a day by gavage until the 29th day", "value": 64.7, "unit": "%"}, {"measurement": "joint tissue lesions (pathology)", "setting": "3 mg/kg", "value": "significant improvement effect"}, {"measurement": "inhibition rate (AUC of ankle diameter difference vs blank vehicle control)", "setting": "10 mg/kg once a day by gavage until the 29th day", "value": 77.3, "unit": "%"}, {"measurement": "joint tissue lesions (pathology)", "setting": "10 mg/kg", "value": "significant improvement effect"}]}]}
